Source: patent publication US20220389009A1, “SUBSTITUTED 1,6-NAPHTHYRIDINE INHIBITORS OF CDK5” (Goldfinch Bio, Inc., priority 2019, published 2022)

What was measured:
[1] = target: CDK5/p25 (Homo sapiens, UniProt Q00535); test: CDK5 mobility shift assay (enzymatic activity of CDK5/p25); type: biochemical; conditions: for IC50: 0.154 nM CDK5/p25, FL peptide 29, 60 min at room temperature, read-out: CDK5 IC50; for CDK5/CDK2 specificity: fold more active against CDK5 than CDK2
Protocol: (§1) Compound potency was measured via a change in the enzymatic activity of CDK5/p25, and optionally of CDK2/CycA2. Enzymes, CDK5/p25 and CDK2/CycA2, were sourced from Carna Biosciences (Cat #04-106 and 04-103, respectively). Test compound stocks were diluted in 100% DMSO and serially diluted 3-fold in a 384-well plate using a TECAN EVO200 (TECAN). Staurosporine was used as a reference control compound in all assays.
(§2) Twenty nL of compound were transferred into a 384-well plate (Greiner 781201) using an Echo550 (Labcyte Inc). Enzyme, ATP, and 10 mM MgCl2 were preincubated at room temperature with the compound in assay buffer (50 mM HEPES pH 7.5, 1 mM EGTA, 0.01% Brij-35, 0.05% BSA, 2 mM DTT) for 30 minutes. Peptide substrate (FL peptide 29 (Perkin Elmer) for CDK5/p25; FL Peptide 18 (Perkin Elmer) for CDK2/CycA2) was added to initiate the reaction. The final assay contained 0.154 nM CDK5/p25 or 1.25 nM CDK2/CycA2, […] (for CDK5/p25) or 37 μM (for CDK2/CycA2) ATP, and 1.5 μM of the appropriate peptide substrate. The final DMSO concentration was <1%.
(§3) The CDK5/p25 reaction was incubated at room temperature for 60 min. The CDK2/CycA2 reaction was incubated at room temperature for 120 min. The reactions were quenched by the addition of 70 μL stopping buffer containing 0.5 M EDTA. Samples were analyzed using the EZ Reader (Perkin Elmer).
(§4) The results were expressed as % vehicle, where % vehicle=100×(U−C2)/(C1−C2), where U is the signal of sample, C1 is the average of the high controls (signal with no compound added), and C2 is the average of low controls (signal with the buffer in place of enzyme). The ICso is determined by fitting the percentage of inhibition as a function of compound concentrations using a 4-parameter fit defined as follows.
(§5) Y=Bottom+(Top−Bottom)/(1+10^((LobIC50-X)*Hill Slope)), where X is the log of the compound concentration, Y is the % vehicle or response at X, Top and Bottom are the plateaus in the same units as Y, and the Hill's Slope is unitless, and the ICso is the half-maximal inhibitory concentration.

[2] = target: CDK2/CycA2 (Homo sapiens, UniProt P24941); test: CDK2 mobility shift assay (enzymatic activity of CDK2/CycA2); type: biochemical; conditions: 1.25 nM CDK2/CycA2, 37 μM ATP, FL Peptide 18, 120 min at room temperature; read-out: CDK2 IC50
Protocol: as §1, §2, §3, §4, §5

Chain of CDK5/p25 (Q00535 whole entry): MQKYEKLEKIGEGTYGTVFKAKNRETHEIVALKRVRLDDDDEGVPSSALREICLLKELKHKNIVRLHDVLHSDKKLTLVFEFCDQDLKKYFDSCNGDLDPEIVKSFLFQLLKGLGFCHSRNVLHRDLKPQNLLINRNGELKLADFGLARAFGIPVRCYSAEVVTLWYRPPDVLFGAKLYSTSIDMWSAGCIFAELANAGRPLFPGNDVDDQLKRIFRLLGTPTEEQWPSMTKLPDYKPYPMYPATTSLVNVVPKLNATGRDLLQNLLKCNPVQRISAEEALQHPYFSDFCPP
Chain of CDK5/p25 (Q15078 99-307 partner limits assumed): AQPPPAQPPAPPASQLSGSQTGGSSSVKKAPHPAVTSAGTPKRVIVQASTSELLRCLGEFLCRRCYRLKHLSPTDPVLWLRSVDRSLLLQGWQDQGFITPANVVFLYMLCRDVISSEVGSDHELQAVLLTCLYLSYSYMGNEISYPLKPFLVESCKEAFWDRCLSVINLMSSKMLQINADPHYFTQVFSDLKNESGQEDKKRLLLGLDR

| IC50 [1] [nM] | IC50 [2] [nM] | Structure (SMILES) | CDK5/CDK2 specificity [1] |
| --- | --- | --- | --- |
| < 10 | 10 to 100 | Fc1cc(-n2cccn2)ccc1Nc1cc2nc(C(F)(F)C3CCNCC3)ccc2cn1 [Compound 169, 2-[difluoro(piperidin-4-yl)methyl]-N-[2-fluoro-4-(pyrazol-1-yl)phenyl]-1,6-naphthyridin-7-amine] | ++ (greater than 10-fold and less than or equal to 100-fold more active against CDK5 than CDK2) |
| 100 to 1000 | > 1000 | COC(c1ccc2cnc(Nc3ccc(-n4cccn4)cc3F)cc2n1)C1CCN(C)CC1 (single isomer, unassigned) [Compound 391, N-[2-fluoro-4-(pyrazol-1-yl)phenyl]-2-[methoxy(1-methylpiperidin-4-yl)methyl]-1,6-naphthyridin-7-amine] | ++ (greater than 10-fold and less than or equal to 100-fold more active against CDK5 than CDK2) |
| < 10 | 10 to 100 | [O-][S@@+](c1ccc2cnc(Nc3ccc(-n4cccn4)cc3F)cc2n1)C1CCNCC1 [Compound 115, N-[2-fluoro-4-(pyrazol-1-yl)phenyl]-2-[(R)-piperidine-4-sulfinyl]-1,6-naphthyridin-7-amine] | ++ (greater than 10-fold and less than or equal to 100-fold more active against CDK5 than CDK2) |
| 100 to 1000 | > 1000 | NC1CCN(C(=O)c2ccc3cnc(Nc4ccc(-n5cccn5)cc4F)cc3n2)C1 (stereo not drawn) [Compound 215, 2-(3-aminopyrrolidine-1-carbonyl)-N-[2-fluoro-4-(pyrazol-1-yl)phenyl]-1,6-naphthyridin-7-amine] | + (10-fold or less more active against CDK5 than CDK2) |
| < 10 | 100 to 1000 | C=C(c1ccc2cnc(Nc3ccc(-n4ccc(CO)n4)cc3F)cc2n1)C1CCN(C)CC1 [Compound 168, [1-[3-fluoro-4-([2-[1-(1-methylpiperidin-4-yl)ethenyl]-1,6-naphthyridin-7-yl]amino)phenyl]pyrazol-3-yl]methanol] | +++ (greater than 100-fold more active against CDK5 than CDK2) |
| < 10 | 100 to 1000 | CN1CCC(C(C)(O)c2ccc3cnc(Nc4ccc(-c5cccn(C)c5=O)cc4F)cc3n2)CC1 (stereo not drawn) [Compound 352] | +++ (greater than 100-fold more active against CDK5 than CDK2) |
| < 10 | 100 to 1000 | NC(=O)c1cccc(-c2ccc(Nc3cc4nc(S(=O)(=O)C5CCN(CC6COC6)CC5)ccc4cn3)c(F)c2)c1 [Compound 326] | +++ (greater than 100-fold more active against CDK5 than CDK2) |
| 10 to 100 | 100 to 1000 | O=S(=O)(c1ccc2cnc(Nc3ccc(-n4ccc(CO)n4)cc3F)cc2n1)N1CCNCC1 [Compound 208, [1-(3-fluoro-4-[[2-(piperazine-1-sulfonyl)-1,6-naphthyridin-7-yl]amino]phenyl)pyrazol-3-yl]methanol] | + (10-fold or less more active against CDK5 than CDK2) |
| < 10 | > 1000 | CN1CCC(S(=O)(=O)c2ccc3cnc(Nc4ccc(-c5ccc(F)cc5)cc4F)cc3n2)CC1 [Compound 183, N-{3,4′-difluoro-[1,1′-biphenyl]-4-yl}-2-(1-methylpiperidin-4-ylsulfonyl)-1,6-naphthyridin-7-amine] | +++ (greater than 100-fold more active against CDK5 than CDK2) |
| 10 to 100 | 100 to 1000 | CN1CCC(/C(=N/O)c2ccc3cnc(Nc4ccc(-n5cccn5)cc4F)cc3n2)CC1 [Compound 381] | + (10-fold or less more active against CDK5 than CDK2) |
| 100 to 1000 | > 1000 | CN1CCC(C(C)(O)c2ccc3cnc(Nc4ccc(-c5cccc(C#N)c5)cc4F)cc3n2)CC1 (stereo not drawn) [Compound 337] | ++ (greater than 10-fold and less than or equal to 100-fold more active against CDK5 than CDK2) |
| < 10 | 100 to 1000 | C=C(c1ccc2cnc(Nc3ccc(-n4ccc(CO)n4)cc3F)cc2n1)C1CCNCC1 [Compound 139, [1-[3-fluoro-4-([2-[1-(piperidin-4-yl)ethenyl]-1,6-naphthyridin-7-yl]amino)phenyl]pyrazol-3-yl]methanol] | +++ (greater than 100-fold more active against CDK5 than CDK2) |
| < 10 | 100 to 1000 | CC(c1ccc2cnc(Nc3ccc(-c4cccnc4)cc3F)cc2n1)C1CCN(C)CC1 (stereo not drawn) [Compound 319] | ++ (greater than 10-fold and less than or equal to 100-fold more active against CDK5 than CDK2) |
| > 1000 | > 1000 | COC(=O)CCc1nnc(Nc2cc3nc(S(=O)(=O)C4CCN(C)CC4)ccc3cn2)s1 [Compound 264] | + (10-fold or less more active against CDK5 than CDK2) |
| 100 to 1000 | > 1000 | CN[C@H]1CC[C@@H](N(CC(=O)O)c2ccc3cnc(Nc4ccc(-n5cccn5)cc4F)cc3n2)CC1 [Compound 155, [(7-[[2-fluoro-4-(pyrazol-1-yl)phenyl]amino]-1,6-naphthyridin-2-yl)[(1s,4s)-4-(methylamino)cyclohexyl]amino]acetic acid] | ++ (greater than 10-fold and less than or equal to 100-fold more active against CDK5 than CDK2) |
| < 10 | 100 to 1000 | CN1CCC(S(=O)(=O)c2ccc3cnc(Nc4ccc(-n5cccn5)cc4F)cc3n2)CC1 [Compound 158, N-[2-fluoro-4-(pyrazol-1-yl)phenyl]-2-(1-methylpiperidin-4-ylsulfonyl)-1,6-naphthyridin-7-amine] | +++ (greater than 100-fold more active against CDK5 than CDK2) |
| < 10 | 10 to 100 | CN1CCC(Sc2ccc3cnc(Nc4ccc(-n5ccc(CO)n5)cc4F)cc3n2)CC1 [Compound 127, [1-[3-fluoro-4-([2-[(1-methylpiperidin-4-yl)sulfanyl]-1,6-naphthyridin-7-yl]amino)phenyl]pyrazol-3-yl]methanol] | +++ (greater than 100-fold more active against CDK5 than CDK2) |
| 10 to 100 | > 1000 | COc1ccc(-c2ccc(Nc3cc4nc(C(C)C5CCN(C)CC5)ccc4cn3)c(F)c2)cc1 (stereo not drawn) [Compound 310] | ++ (greater than 10-fold and less than or equal to 100-fold more active against CDK5 than CDK2) |
| < 10 | 100 to 1000 | Cc1ccc(Nc2cc3nc(S(=O)(=O)C4CCN(C)CC4)ccc3cn2)c(F)c1 [Compound 294] | +++ (greater than 100-fold more active against CDK5 than CDK2) |
| < 10 | 10 to 100 | CN1CCC(C(C)(O)c2ccc3cnc(Nc4ccc(-c5ccc(C#N)cn5)cc4F)cc3n2)CC1 (stereo not drawn) [Compound 356] | ++ (greater than 10-fold and less than or equal to 100-fold more active against CDK5 than CDK2) |
| < 10 | 10 to 100 | CN1CCC(C(C)(O)c2ccc3cnc(Nc4cccc(N5CCCC5=O)c4)cc3n2)CC1 (stereo not drawn) [Compound 350] | ++ (greater than 10-fold and less than or equal to 100-fold more active against CDK5 than CDK2) |
| < 10 | 100 to 1000 | CN1CCC(S(=O)(=O)c2ccc3cnc(Nc4ccc(N5CCCC5)cc4)cc3n2)CC1 [Compound 301] | +++ (greater than 100-fold more active against CDK5 than CDK2) |
